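Following 48 hours of exposure in 96-well plates, responses at five concentrations were used to interpolate endpoints linearly. Definition used: TGI = concentration required for complete inhibition of growth.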 Where only a bound is given, the exact number is not on record here.

Among the test systems are ACHN renal; CAKI-1 renal; IGROV1 ovarian; NCI-H23 lung; SF-268 CNS; SF-295 CNS; SN12C renal; SNB-19 CNS; UACC-62 melanoma; 786-0 renal; HCT-116 colon; K-562 leukemia; KM12 colon; SR leukemia; UACC-257 melanoma; T-47D breast.
Test in all cases: NCI tumour cell line growth inhibition, 48 h

As for `CCOc1ccc(C2=C(Cl)c3cc(OC)c(OC)cc3C2Cl)cc1` (stereo unspecified), the TGI in the test with ACHN renal, in the test on CAKI-1 renal, in the test with IGROV1 ovarian, in the test on NCI-H23 lung, in the test with SF-268 CNS and in the test with SF-295 CNS was over 100 µM throughout. For the same molecule, the TGI with SN12C renal, with SNB-19 CNS and with UACC-62 melanoma was over 100 µM throughout.
On to `C=C1C(=O)OC2C[C@H](C)C3CC(=O)C(C)=C3CC12` (stereo partly specified), for which the TGI in the test with 786-0 renal was found to be 26.1 µM; in the test with ACHN renal, 25.5 µM; in the test on CAKI-1 renal, 18.2 µM; in the test on HCT-116 colon, 20.4 µM; with IGROV1 ovarian, 31.4 µM; in the test with K-562 leukemia it was 23.1 µM. Besides, the TGI was 33.3 µM in the test on KM12 colon; 28.7 µM with NCI-H23 lung; 38.7 µM with SF-268 CNS; over 62.3 µM in the test on SF-295 CNS; 26.1 µM in the test on SN12C renal; over 100 µM in the test with SNB-19 CNS. Besides, the TGI in the test with SR leukemia amounted to 22.3 µM; in the test with UACC-257 melanoma, 28.6 µM; with UACC-62 melanoma, 25.9 µM.
Consider `CC(=O)OCc1cccc(O)c1C(=O)CCC=C(C)C`, for which the TGI in the test on 786-0 renal, with ACHN renal, with CAKI-1 renal, in the test with HCT-116 colon, in the test with IGROV1 ovarian and with K-562 leukemia was over 100 µM each time. Besides, the TGI in the test on KM12 colon, in the test with NCI-H23 lung, in the test on SF-268 CNS, in the test on SF-295 CNS, in the test on SN12C renal and in the test on SNB-19 CNS was over 100 µM each time. Also, the TGI in the test with SR leukemia, in the test on T-47D breast, in the test on UACC-257 melanoma and in the test with UACC-62 melanoma was over 100 µM throughout.
As to `CC1C(=O)C(C)C(c2cccs2)N(N=O)C1c1cccs1` (stereo unspecified), the TGI with CAKI-1 renal, in the test on HCT-116 colon, with IGROV1 ovarian, in the test with K-562 leukemia, in the test with KM12 colon and with NCI-H23 lung was over 100 µM throughout. Besides, the TGI in the test on SF-268 CNS, with SF-295 CNS, with SN12C renal, in the test on SNB-19 CNS, with UACC-257 melanoma and in the test with UACC-62 melanoma was over 100 µM in each case.
For the molecule `O=C1ON(Cc2ccccc2)C(c2ccccc2)N1c1ccccc1` (stereo unspecified), the TGI with HCT-116 colon, in the test with IGROV1 ovarian, in the test with K-562 leukemia, in the test on KM12 colon, in the test on NCI-H23 lung and with SF-268 CNS was over 100 µM each time. Moreover, the TGI with SF-295 CNS, in the test with SN12C renal, in the test with SNB-19 CNS, with UACC-257 melanoma and in the test with UACC-62 melanoma was over 100 µM throughout.
As for `CC(C)=CCC/C(C)=C/CC/C(C)=C/CC/C=C(\C)CC/C=C(\C)CCC1SC1(C)C` (stereo unspecified), the TGI in the test with 786-0 renal, in the test on ACHN renal, with CAKI-1 renal, with HCT-116 colon, in the test with IGROV1 ovarian and with K-562 leukemia was over 100 µM in each case. For the same molecule, the TGI with KM12 colon, with NCI-H23 lung, in the test with SF-268 CNS, in the test on SF-295 CNS, in the test with SN12C renal and in the test on SNB-19 CNS was over 100 µM throughout. In addition, the TGI in the test with UACC-257 melanoma and in the test with UACC-62 melanoma was over 100 µM throughout.
As to `CC(=O)Nc1ccc(C2=N/C(=C\c3ccc(Cl)c(Cl)c3)C(=O)O2)cc1`, the TGI with ACHN renal, with CAKI-1 renal, with HCT-116 colon, in the test on IGROV1 ovarian, with K-562 leukemia and in the test on KM12 colon was over 100 µM throughout. In addition, the TGI with NCI-H23 lung, in the test with SF-268 CNS, with SF-295 CNS, with SN12C renal, with SNB-19 CNS and in the test with SR leukemia was over 100 µM each time. Also, the TGI with UACC-257 melanoma and in the test with UACC-62 melanoma was over 100 µM in each case.
Turning to `O=C1NC2OCC(O)C(O1)C2O` (stereo unspecified), the TGI in the test with 786-0 renal, in the test with ACHN renal, in the test on CAKI-1 renal, in the test with IGROV1 ovarian, in the test with K-562 leukemia and in the test with KM12 colon was over 100 µM each time. Moreover, the TGI in the test with NCI-H23 lung, in the test on SF-268 CNS, in the test with SF-295 CNS, with SN12C renal, in the test on SNB-19 CNS and in the test on SR leukemia was over 100 µM each time. Also, the TGI in the test on UACC-257 melanoma and in the test with UACC-62 melanoma was over 100 µM throughout.
With `CN(C)C1(C(=O)O)CC1`, the TGI in the test on 786-0 renal, in the test on ACHN renal, in the test with HCT-116 colon, in the test on IGROV1 ovarian, in the test with K-562 leukemia and with NCI-H23 lung was over 100 µM each time. The TGI in the test on SF-268 CNS, in the test on SF-295 CNS, with SN12C renal, in the test with SNB-19 CNS, with SR leukemia and in the test with T-47D breast was over 100 µM throughout. Besides, the TGI in the test on UACC-257 melanoma is over 100 µM.
Take `Cc1ccc(C2(C)NC(=S)N(NC(N)=S)C2=S)cc1` (stereo unspecified): the TGI with 786-0 renal, in the test on ACHN renal, with HCT-116 colon, in the test with IGROV1 ovarian, in the test with K-562 leukemia and with NCI-H23 lung was over 100 µM throughout. Besides, the TGI in the test on SF-268 CNS, in the test on SF-295 CNS, in the test with SN12C renal, in the test on SNB-19 CNS, in the test on SR leukemia and in the test on UACC-257 melanoma was over 100 µM each time. Moreover, in the test on UACC-62 melanoma, the TGI is over 100 µM.

The values are drawn from PubChem BioAssay (NCI).
